Reference: patent US12162856B2, “β-catenin and B-cell lymphoma 9 (BCL9) inhibitors” (H. LEE MOFFITT CANCER CENTER AND RESEARCH INSTITUTE, INC., priority 2019, dated 2024)
Counter-ions that a name gives are not always drawn. Like-named read-outs stand apart in the source and are kept apart here.

Columns and labels:
β-catenin/BCL9 PPI = target: T1, β-catenin/BCL9 PPI (Homo sapiens, UniProt P35222); assay: AlphaScreen competitive inhibition assay of the β-catenin/BCL9 PPI; format: binding; conditions: mean ± SD, triplicate, Ki derived from IC50 (Nikolovska-Coleska equation)
T1 construct: Wild-type full-length β-catenin were cloned into a pET-28b vector; made in house; host or cells: Escherichia coli BL21 DE3 (β-catenin); BCL9 peptide chemically synthesized
T1 sequence (P35222 1-781): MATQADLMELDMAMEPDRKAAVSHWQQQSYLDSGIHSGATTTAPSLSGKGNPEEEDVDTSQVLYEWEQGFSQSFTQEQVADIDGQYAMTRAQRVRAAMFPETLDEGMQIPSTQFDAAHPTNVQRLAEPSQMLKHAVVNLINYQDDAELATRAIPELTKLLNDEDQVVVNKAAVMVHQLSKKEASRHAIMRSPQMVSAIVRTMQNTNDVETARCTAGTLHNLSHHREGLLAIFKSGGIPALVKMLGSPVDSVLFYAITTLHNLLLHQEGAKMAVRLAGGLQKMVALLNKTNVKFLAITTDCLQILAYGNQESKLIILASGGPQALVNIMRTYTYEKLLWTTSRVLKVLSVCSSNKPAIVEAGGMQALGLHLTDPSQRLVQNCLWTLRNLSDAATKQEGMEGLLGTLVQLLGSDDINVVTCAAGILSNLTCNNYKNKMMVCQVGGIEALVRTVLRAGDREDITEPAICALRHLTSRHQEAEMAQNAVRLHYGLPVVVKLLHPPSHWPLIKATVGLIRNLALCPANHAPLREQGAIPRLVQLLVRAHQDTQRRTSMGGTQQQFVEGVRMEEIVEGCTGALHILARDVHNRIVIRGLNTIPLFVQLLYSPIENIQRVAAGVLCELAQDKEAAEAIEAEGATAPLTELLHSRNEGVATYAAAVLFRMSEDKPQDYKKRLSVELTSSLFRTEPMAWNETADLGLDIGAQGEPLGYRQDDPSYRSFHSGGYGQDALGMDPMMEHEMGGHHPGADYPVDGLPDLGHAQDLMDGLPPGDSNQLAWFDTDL
Description: Protein expression and purification. Wild-type full-length β-catenin were cloned into a pET-28b vector carrying a C-terminal 6×histidine (Novagen), and transformed into Escherichia coli BL21 DE3 (Novagen). Cells were cultured in LB medium with 30 μg/mL kanamycin until the OD600 was approximately 0.8, and then protein expression was induced with 400 μM of IPTG at 20° C. overnight. Cells were lysed by sonication. The proteins were purified by Ni-NTA affinity chromatography (30210, Qiagen) and dialyzed against a buffer containing 20 mM of Tris (pH 8.5), 100 mM NaCl, 10% glycerol, and 3 mM DTT. The purity of β-eaten in was greater than 95% as determined by SDS-PAGE gel analysis. Native non-denaturing gel electrophoresis was performed to confirm the homogeneity of the purified proteins. Thermal-shift assay was performed on an iCycler iQ Real Time Detection System (Bio-Rad) to monitor protein stability and detect protein aggregation. Protein unfolding was evaluated through measuring the S15 fluorescence changes of fluorescent dye Sypro Orange when interacting with wild-type or mutant β-catenin proteins. A temperature increment of […] was applied. CD spectra were measured on a J-815 spectropolarimeter (Jasco). All spectra were recorded at room temperature, and the baseline control containing all of the substances except protein. Sample were prepared at a concentration around 1-5 μM in a buffer of 10 mM potassium phosphate and 100 mM potassium fluoride at pH 7.0 to ensure that the transmission of light through the sample was not restricted. All proteins were stable and no aggregation was observed under storage or assay conditions. Proteins were aliquoted and stored at −80° C.
BCL9 peptide synthesis and purification. Human BCL9 (residues 350-375), and […] biotinylated human BCL9 (residues 350-375) were synthesized. All synthesized peptides were purified by HPLC with purity >95%. The structures were validated by LC/MS. The sequences are as follows (Ahx, 6-aminohexanoic acid).
AlphaScreen competitive inhibition assays. For the competitive inhibition assays of the β-catenin/BCL9 PPI, the negative control (equivalent to 0% inhibition) refers to 5.0 nM of biotinylated BCL9, 40 nM of His6-tagged β-catenin, and 10 μg/mL of donor and acceptor beads in a final volume of 25 μL assay buffer, but no tested inhibitor present. The positive control (equivalent to 100% inhibition) refers to 5.0 nM of biotinylated BCL9 and […] of donor and acceptor beads in a final volume of 25 μL assay buffer.
For the β-catenin/BCL9 assay, 5 nM of biotinylated BCL9 and 40 nM of His6-tagged β-catenin were incubated in assay buffer at 4° C. for 30 min. Different concentrations of the tested inhibitor were added and incubated in 20 μL assay buffer at 4° C. for another 1 h. All of the above assay plates were covered and gently mixed on an orbital shaker. The donor and acceptor beads were then added to the plates to a final concentration of 10 μg/mL in 25 μL assay buffer. The mixture was incubated for 1 h at 4° C. before detection. The IC50 value was determined by nonlinear least-square analysis of GraphPad Prism 5.0. The Ki values were derived from the IC50 values using a method reported by Nikolovska-Coleska et al (Nikolovska-Coleska, Z.; Wang, R.; Fang, X.; Pan, H.; Tomita, Y.; Li, P.; Roller, P. P.; Krajewski, K.; Saito, N. G.; Stuckey, J. A.; Wang, S. Development and optimization of a binding assay for the XIAP BIR3 domain using fluorescence polarization. Anal. Biochem. 2004, 332, 261-273.). The assays were conducted under the conditions required by Nikolovska-Coleska et al.'s equation for determining the Ki values. All of the experiments were performed in triplicate. The results were expressed as mean±standard deviation.

Wnt target genes = conditions: reported in the literature; cited from earlier work
[1] = target: T2, β-catenin/BCL9 interaction (Homo sapiens, UniProt P35222); conditions: reported in the literature; cited from earlier work
T2 sequence (P35222 1-781): T1 sequence (P35222 1-781)

[2] = experiment 3, read-out: Ki (μM ± SD) experiment 3
[3] = experiment 4, read-out: Ki (μM ± SD) experiment 4
[4] = experiment 1, read-out: Ki (μM ± SD) experiment 1
[5] = experiment 2, read-out: Ki (μM ± SD) experiment 2

Q: Which results are given for CC[C@H]1CN(C(=O)c2cc(F)cc(NC(C)=O)c2)CCN1C(=O)c1ccc(O[C@H]2CCNC2)c(C2CCCCC2)c1 [Compound 14, N-(3-((S)-4-(3-Cyclohexyl-4-(((S)-pyrrolidin-3-yl)oxy)benzoyl)-3-ethylpiperazine-1-carbonyl)-5-fluorophenyl) acetamide trifluoroacetate]?
A: Ki (β-catenin/BCL9 PPI; [2]): 790 ± 58 µM; Ki (β-catenin/BCL9 PPI; [3]): 780 ± 130 µM

Q: Which Ki (β-catenin/BCL9 PPI; [4]) does the source give for CN(C(=O)CCCN)c1cc(F)cc(C(=O)N2CCN(C(=O)c3ccc(O[C@H]4CCNC4)c(C4CCCCC4)c3)CC2)c1 [Compound 6, (S)-4-amino-N-(3-(4-(3-cyclohexyl-4-(pyrrolidin-3-yloxy)benzoyl)piperazine-1-carbonyl)-5-fluorophenyl)-N-methylbutanamide ditrifluoroacetate] here?
A: 840 ± 64 µM

Q: And the Ki (β-catenin/BCL9 PPI; [5])?
A: 380 ± 44 µM

Q: Which “suppression of Wnt target gene / β-catenin-dependent transcription” value (Wnt target genes) does the source give for CC(C)c1cc2c(c(O)c1O)[C@@]1(C(=O)O)CCCC(C)(C)[C@@H]1CC2 [camosic acid, Carnosic acid] here?
A: inhibit β-catenin-dependent transcription

Q: What about the “disruption of the β-catenin/BCL9 interaction” value [1] of the same molecule?
A: can disrupt the β-catenin/BCL9 interaction

Q: For CC(C)(N)C(=O)Nc1cc(F)cc(C(=O)N2CCN(C(=O)c3ccc(O[C@H]4CCNC4)c(C4CCCCC4)c3)CC2)c1 [Compound 3, (S)-2-Amino-N-(3-(4-(3-cyclohexyl-4-(pyrrolidin-3-yloxy)benzoyl)piperazine-1-carbonyl)-5-fluorophenyl)-2-methylpropanamide ditrifluoroacetate], which Ki (β-catenin/BCL9 PPI; [4]) is on record?
A: 310 ± 32 µM

Q: What about the Ki (β-catenin/BCL9 PPI; [5]) of the same molecule?
A: 550 ± 46 µM

Q: Which Ki (β-catenin/BCL9 PPI; [4]) does the source give for CN(C(=O)C1CCNCC1)c1cc(F)cc(C(=O)N2CCN(C(=O)c3ccc(O[C@H]4CCNC4)c(C4CCCCC4)c3)CC2)c1 [Compound 10, (S)—N-(3-(4-(3-cyclohexyl-4-(pyrrolidin-3-yloxy)benzoyl)piperazine-1-carbonyl)-5-fluorophenyl)-N-methylpiperidine-4-carboxamide ditrifluoroacetate] here?
A: 420 ± 50 µM

Q: And the Ki (β-catenin/BCL9 PPI; [5])?
A: 76 ± 8.3 µM

Q: Which Ki (β-catenin/BCL9 PPI; [2]) does the source give for CC(=O)Nc1cc(F)cc(C(=O)N2CCN(C(=O)c3ccc(O[C@H]4CCNC4)c(C4CCCCC4)c3)[C@@H](C(C)C)C2)c1 [Compound 15, N-(3-((S)-4-(3-Cyclohexyl-4-(((S)-pyrrolidin-3-yl)oxy)benzoyl)-3-isopropylpiperazine-1-carbonyl)-5-fluorophenyl) acetamide trifluoroacetate] here?
A: 280 ± 27 µM

Q: What about the Ki (β-catenin/BCL9 PPI; [3]) of the same molecule?
A: 290 ± 61 µM

Q: What does the source list for CN(C(=O)CCCCN)c1cc(F)cc(C(=O)N2CCN(C(=O)c3ccc(O[C@H]4CCNC4)c(C4CCCCC4)c3)CC2)c1 [Compound 7, (S)-5-amino-N-(3-(4-(3-cyclohexyl-4-(pyrrolidin-3-yloxy)benzoyl)piperazine-1-carbonyl)-5-fluorophenyl)-N-methylpentanamide ditrifluoroacetate]?
A: Ki (β-catenin/BCL9 PPI; [4]): 730 ± 73 µM; Ki (β-catenin/BCL9 PPI; [5]): 240 ± 33 µM
